Measurements from ChEMBL document CHEMBL4507296 (2021).

What was measured:
[1] = molecular target: Cyclin-dependent kinase 3 (Homo sapiens) (UniProt Q00526); details: Compound concentration 1000.0 nM
[2] = test system: Epidermal growth factor receptor (Homo sapiens), P00533 [UNDEFINED MUTATION]; details: Compound concentration 1000.0 nM
[3] = molecular target: Serine/threonine-protein kinase 32C (Homo sapiens) (UniProt Q86UX6); details: Compound concentration 1000.0 nM
[4] = molecular target: MTNR1B (Cricetulus griseus) (UniProt G3H6N9); assay: Melatonin 2 (hamster) CEREP ligand profiling; details: Compound concentration 10.0 uM
[5] = molecular target: Myosin light chain kinase (Homo sapiens) (UniProt Q32MK0); details: Compound concentration 1000.0 nM
[6] = molecular target: Calcium/calmodulin-dependent protein kinase type II subunit delta (Homo sapiens) (UniProt Q13557); details: Compound concentration 1000.0 nM
Calcium/calmodulin-dependent protein kinase type II subunit delta (Homo sapiens), sequence (Q13557 whole entry): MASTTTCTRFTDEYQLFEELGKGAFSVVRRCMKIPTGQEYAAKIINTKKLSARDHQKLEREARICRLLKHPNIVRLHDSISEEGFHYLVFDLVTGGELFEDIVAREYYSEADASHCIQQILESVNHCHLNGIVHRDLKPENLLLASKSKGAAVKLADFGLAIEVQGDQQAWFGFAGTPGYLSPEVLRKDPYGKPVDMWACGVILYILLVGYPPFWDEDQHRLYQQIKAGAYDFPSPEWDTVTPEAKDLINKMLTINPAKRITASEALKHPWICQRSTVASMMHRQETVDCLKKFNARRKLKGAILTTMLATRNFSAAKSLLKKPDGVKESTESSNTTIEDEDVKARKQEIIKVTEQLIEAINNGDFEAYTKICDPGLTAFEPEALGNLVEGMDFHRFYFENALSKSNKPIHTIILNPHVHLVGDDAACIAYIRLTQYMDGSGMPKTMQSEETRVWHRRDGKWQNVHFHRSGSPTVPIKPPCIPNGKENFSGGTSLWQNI

[7] = test system: Proto-oncogene tyrosine-protein kinase receptor Ret (Homo sapiens), P07949 [V804L]; details: Compound concentration 1000.0 nM
[8] = molecular target: Mitotic checkpoint serine/threonine-protein kinase BUB1 (Homo sapiens) (UniProt O43683); details: Compound concentration 1000.0 nM
[9] = molecular target: Mitogen-activated protein kinase 7 (Homo sapiens) (UniProt Q13164); details: Compound concentration 1000.0 nM
[10] = molecular target: D(1A) dopamine receptor (Homo sapiens) (UniProt P21728); details: Compound concentration 10.0 uM
D(1A) dopamine receptor (Homo sapiens), sequence (P21728 whole entry): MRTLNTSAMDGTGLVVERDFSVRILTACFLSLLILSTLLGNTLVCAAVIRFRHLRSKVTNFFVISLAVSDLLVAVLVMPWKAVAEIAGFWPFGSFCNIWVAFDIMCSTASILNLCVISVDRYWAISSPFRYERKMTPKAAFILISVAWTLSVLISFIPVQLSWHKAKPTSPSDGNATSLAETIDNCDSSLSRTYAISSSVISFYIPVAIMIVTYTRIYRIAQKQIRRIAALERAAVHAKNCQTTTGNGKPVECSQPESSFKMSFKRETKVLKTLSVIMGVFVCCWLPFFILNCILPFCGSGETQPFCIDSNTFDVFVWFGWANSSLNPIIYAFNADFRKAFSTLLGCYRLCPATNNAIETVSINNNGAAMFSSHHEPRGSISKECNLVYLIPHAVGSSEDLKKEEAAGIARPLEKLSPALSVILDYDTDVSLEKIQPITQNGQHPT

[11] = molecular target: Serine/threonine-protein kinase NLK (Homo sapiens) (UniProt Q9UBE8); details: Compound concentration 1000.0 nM
[12] = test system: Tyrosine-protein kinase ABL1 (Homo sapiens), P00519 [E255K]; details: Compound concentration 1000.0 nM
[13] = molecular target: Dual specificity testis-specific protein kinase 1 (Homo sapiens) (UniProt Q15569); details: Compound concentration 1000.0 nM
[14] = molecular target: Mitogen-activated protein kinase kinase kinase 15 (Homo sapiens) (UniProt Q6ZN16); details: Compound concentration 1000.0 nM
[15] = molecular target: Cyclin-dependent kinase 11A (Homo sapiens) (UniProt Q9UQ88); details: Compound concentration 1000.0 nM
[16] = molecular target: Calcium/calmodulin-dependent protein kinase type II subunit alpha (Homo sapiens) (UniProt Q9UQM7); details: Compound concentration 1000.0 nM
[17] = test system: Mast/stem cell growth factor receptor Kit (Homo sapiens), P10721 [L576P]; details: Compound concentration 1000.0 nM
[18] = molecular target: Serine/threonine-protein kinase OSR1 (Homo sapiens) (UniProt O95747); details: Compound concentration 1000.0 nM
[19] = molecular target: Serine/threonine-protein kinase Nek9 (Homo sapiens) (UniProt Q8TD19); details: Compound concentration 1000.0 nM
Serine/threonine-protein kinase Nek9 (Homo sapiens), sequence (Q8TD19 whole entry): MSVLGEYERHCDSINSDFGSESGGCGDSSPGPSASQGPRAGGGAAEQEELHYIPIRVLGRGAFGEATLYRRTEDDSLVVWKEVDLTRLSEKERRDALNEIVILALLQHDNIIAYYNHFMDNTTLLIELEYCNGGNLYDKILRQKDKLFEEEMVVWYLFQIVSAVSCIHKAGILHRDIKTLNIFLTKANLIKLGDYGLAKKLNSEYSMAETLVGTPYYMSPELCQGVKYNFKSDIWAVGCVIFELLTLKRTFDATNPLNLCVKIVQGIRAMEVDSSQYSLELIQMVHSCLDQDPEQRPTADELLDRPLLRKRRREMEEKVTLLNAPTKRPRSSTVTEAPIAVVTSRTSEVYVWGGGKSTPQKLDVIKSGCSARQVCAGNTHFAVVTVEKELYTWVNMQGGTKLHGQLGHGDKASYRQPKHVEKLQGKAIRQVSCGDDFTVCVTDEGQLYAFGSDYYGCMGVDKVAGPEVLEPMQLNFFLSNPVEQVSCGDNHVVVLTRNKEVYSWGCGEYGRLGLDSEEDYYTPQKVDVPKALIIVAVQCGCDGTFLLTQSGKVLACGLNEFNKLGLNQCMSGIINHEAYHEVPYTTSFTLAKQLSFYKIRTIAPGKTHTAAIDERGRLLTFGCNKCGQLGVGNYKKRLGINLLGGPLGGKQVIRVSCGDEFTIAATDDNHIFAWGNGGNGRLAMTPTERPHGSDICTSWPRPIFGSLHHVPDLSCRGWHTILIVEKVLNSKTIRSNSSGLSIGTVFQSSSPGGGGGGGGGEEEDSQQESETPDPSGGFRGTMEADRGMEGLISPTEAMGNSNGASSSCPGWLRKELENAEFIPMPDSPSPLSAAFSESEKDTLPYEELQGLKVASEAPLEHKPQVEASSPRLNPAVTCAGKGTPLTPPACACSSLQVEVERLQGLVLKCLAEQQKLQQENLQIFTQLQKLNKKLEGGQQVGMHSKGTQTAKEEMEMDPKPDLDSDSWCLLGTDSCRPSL

[20] = molecular target: Cyclin-dependent kinase 2 homolog (Plasmodium falciparum (isolate 3D7)) (UniProt P61075); details: Compound concentration 1000.0 nM
[21] = molecular target: D(4) dopamine receptor (Homo sapiens) (UniProt P21917); details: Compound concentration 10.0 uM
[22] = molecular target: Delta-type opioid receptor (Homo sapiens) (UniProt P41143); details: Compound concentration 10.0 uM
[23] = test system: Hepatocyte growth factor receptor (Homo sapiens), P08581 [Y1235D]; details: Compound concentration 1000.0 nM
[24] = molecular target: Calcium-dependent protein kinase 1 (Plasmodium falciparum) (UniProt P62344); details: Compound concentration 1000.0 nM
[25] = molecular target: Eukaryotic translation initiation factor 2-alpha kinase 1 (Homo sapiens) (UniProt Q9BQI3); details: Compound concentration 1000.0 nM
Eukaryotic translation initiation factor 2-alpha kinase 1 (Homo sapiens), sequence (Q9BQI3 whole entry): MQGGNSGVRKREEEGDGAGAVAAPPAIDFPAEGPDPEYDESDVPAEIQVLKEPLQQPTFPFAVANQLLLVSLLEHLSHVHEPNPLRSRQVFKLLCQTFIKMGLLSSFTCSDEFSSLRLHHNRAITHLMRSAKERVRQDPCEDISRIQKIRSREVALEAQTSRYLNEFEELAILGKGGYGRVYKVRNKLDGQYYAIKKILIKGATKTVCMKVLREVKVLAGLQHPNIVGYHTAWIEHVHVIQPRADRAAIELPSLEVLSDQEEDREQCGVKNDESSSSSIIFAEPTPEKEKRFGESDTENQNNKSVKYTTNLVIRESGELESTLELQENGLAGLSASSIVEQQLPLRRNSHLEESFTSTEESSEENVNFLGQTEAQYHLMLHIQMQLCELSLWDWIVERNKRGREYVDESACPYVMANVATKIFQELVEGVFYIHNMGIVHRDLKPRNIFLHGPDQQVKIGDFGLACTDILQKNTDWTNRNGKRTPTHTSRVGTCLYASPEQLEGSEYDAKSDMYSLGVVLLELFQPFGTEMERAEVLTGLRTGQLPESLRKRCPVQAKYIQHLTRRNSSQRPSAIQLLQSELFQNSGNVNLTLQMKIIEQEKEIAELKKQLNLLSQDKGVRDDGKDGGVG

[26] = molecular target: Kappa-type opioid receptor (Rattus norvegicus) (UniProt P34975); assay: k-Opioid (rat) CEREP ligand profiling; details: Compound concentration 10.0 uM
[27] = molecular target: MAP kinase-activated protein kinase 2 (Homo sapiens) (UniProt P49137); details: Compound concentration 1000.0 nM
[28] = molecular target: Serine/threonine-protein kinase PAK 5 (Homo sapiens) (UniProt Q9P286); details: Compound concentration 1000.0 nM
[29] = molecular target: GABA-A receptor; anion channel (Rattus norvegicus) (UniProt O09028+P15431+P18506+P18508+P19969+P20236+P23574+P23576+P28471+P28473+P30191+P62813+P63079+P63138+Q91ZM7+Q9ES14); details: Compound concentration 10.0 uM
[30] = molecular target: Phosphatidylinositol 3-kinase catalytic subunit type 3 (Homo sapiens) (UniProt Q8NEB9); details: Compound concentration 1000.0 nM
[31] = molecular target: Activin receptor type-1B (Homo sapiens) (UniProt P36896); details: Compound concentration 1000.0 nM
Activin receptor type-1B (Homo sapiens), sequence (P36896 whole entry): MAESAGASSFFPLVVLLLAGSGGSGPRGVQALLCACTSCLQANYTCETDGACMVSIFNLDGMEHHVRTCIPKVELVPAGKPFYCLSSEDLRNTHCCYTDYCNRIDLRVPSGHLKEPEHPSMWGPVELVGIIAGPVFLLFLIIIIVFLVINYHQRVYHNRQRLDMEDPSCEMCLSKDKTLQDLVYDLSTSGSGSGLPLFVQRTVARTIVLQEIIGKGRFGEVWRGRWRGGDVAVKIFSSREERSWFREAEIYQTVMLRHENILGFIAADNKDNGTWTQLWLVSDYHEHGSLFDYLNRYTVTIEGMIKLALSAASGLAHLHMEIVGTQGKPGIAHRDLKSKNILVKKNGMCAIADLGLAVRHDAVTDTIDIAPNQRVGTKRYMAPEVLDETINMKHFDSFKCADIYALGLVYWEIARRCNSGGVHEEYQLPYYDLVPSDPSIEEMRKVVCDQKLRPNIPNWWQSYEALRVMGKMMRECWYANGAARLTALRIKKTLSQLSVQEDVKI

[32] = molecular target: Tyrosine-protein kinase Mer (Homo sapiens) (UniProt Q12866); details: Compound concentration 1000.0 nM
[33] = molecular target: Serine/threonine-protein kinase Nek3 (Homo sapiens) (UniProt P51956); details: Compound concentration 1000.0 nM
[34] = molecular target: Inhibitor of nuclear factor kappa-B kinase subunit epsilon (Homo sapiens) (UniProt Q14164); details: Compound concentration 1000.0 nM
[35] = molecular target: Serine/threonine-protein kinase pim-2 (Homo sapiens) (UniProt Q9P1W9); details: Compound concentration 1000.0 nM
Serine/threonine-protein kinase pim-2 (Homo sapiens), sequence (Q9P1W9 whole entry, looked up): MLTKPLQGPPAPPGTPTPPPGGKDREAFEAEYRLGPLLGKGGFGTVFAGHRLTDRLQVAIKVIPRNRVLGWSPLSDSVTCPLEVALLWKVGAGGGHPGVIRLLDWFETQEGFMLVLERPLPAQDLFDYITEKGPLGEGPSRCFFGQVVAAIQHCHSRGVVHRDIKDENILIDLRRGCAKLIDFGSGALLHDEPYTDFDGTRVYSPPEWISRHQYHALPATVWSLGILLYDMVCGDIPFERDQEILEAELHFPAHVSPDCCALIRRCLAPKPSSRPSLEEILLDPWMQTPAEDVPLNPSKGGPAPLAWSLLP

[36] = molecular target: Cyclin-dependent kinase 17 (Homo sapiens) (UniProt Q00537); details: Compound concentration 1000.0 nM
[37] = molecular target: Serine/threonine-protein kinase 16 (Homo sapiens) (UniProt O75716); details: Compound concentration 1000.0 nM
[38] = molecular target: Serine/threonine-protein kinase Nek10 (Homo sapiens) (UniProt Q6ZWH5); details: Compound concentration 1000.0 nM
[39] = molecular target: Activin receptor type-1 (Homo sapiens) (UniProt Q04771); details: Compound concentration 1000.0 nM
[40] = molecular target: Cyclin-dependent kinase 4 (Homo sapiens) (UniProt P11802); details: Compound concentration 1000.0 nM
[41] = molecular target: Mitogen-activated protein kinase kinase kinase kinase 5 (Homo sapiens) (UniProt Q9Y4K4); details: Compound concentration 1000.0 nM
Mitogen-activated protein kinase kinase kinase kinase 5 (Homo sapiens), sequence (Q9Y4K4 whole entry, looked up): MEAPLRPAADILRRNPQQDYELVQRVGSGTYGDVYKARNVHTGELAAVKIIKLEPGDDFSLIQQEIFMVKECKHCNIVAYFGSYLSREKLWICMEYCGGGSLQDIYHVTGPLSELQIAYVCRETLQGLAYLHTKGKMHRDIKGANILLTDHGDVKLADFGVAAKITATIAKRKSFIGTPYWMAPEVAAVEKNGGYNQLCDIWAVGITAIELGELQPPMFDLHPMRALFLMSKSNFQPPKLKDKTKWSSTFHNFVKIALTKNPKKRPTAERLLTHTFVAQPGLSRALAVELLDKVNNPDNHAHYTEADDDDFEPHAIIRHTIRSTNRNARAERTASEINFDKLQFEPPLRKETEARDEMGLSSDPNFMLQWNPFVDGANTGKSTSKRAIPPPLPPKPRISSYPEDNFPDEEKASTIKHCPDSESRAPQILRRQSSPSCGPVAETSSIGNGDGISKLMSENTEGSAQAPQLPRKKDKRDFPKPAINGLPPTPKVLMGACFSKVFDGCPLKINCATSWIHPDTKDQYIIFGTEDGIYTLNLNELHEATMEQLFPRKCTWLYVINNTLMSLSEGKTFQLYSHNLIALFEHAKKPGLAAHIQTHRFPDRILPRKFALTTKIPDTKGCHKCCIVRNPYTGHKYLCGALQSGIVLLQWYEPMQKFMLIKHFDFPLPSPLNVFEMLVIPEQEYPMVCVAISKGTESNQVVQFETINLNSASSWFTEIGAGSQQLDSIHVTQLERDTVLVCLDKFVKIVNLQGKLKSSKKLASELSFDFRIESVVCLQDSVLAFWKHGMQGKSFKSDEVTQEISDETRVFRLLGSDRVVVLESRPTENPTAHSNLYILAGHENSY

[42] = molecular target: Tyrosine-protein kinase ITK/TSK (Homo sapiens) (UniProt Q08881); details: Compound concentration 1000.0 nM
Tyrosine-protein kinase ITK/TSK (Homo sapiens), sequence (Q08881 whole entry): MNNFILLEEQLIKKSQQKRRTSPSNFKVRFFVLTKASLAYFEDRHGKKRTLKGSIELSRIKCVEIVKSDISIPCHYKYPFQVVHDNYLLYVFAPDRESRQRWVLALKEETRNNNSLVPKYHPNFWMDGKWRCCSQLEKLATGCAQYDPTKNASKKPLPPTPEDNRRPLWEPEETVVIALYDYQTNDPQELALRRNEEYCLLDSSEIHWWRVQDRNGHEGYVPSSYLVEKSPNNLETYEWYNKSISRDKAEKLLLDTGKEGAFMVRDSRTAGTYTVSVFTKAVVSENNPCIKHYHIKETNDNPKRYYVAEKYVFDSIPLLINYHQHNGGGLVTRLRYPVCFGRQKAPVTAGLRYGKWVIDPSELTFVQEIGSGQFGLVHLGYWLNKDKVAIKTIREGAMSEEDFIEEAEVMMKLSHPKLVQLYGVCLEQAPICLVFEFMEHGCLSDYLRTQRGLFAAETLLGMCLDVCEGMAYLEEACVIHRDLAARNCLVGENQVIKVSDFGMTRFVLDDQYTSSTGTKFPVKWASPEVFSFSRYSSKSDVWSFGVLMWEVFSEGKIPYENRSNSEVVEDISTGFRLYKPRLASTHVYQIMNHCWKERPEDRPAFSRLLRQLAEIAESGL

[43] = molecular target: D(1B) dopamine receptor (Homo sapiens) (UniProt P21918); details: Compound concentration 10.0 uM
[44] = molecular target: Serine/threonine-protein kinase PknB (Mycobacterium tuberculosis) (UniProt P9WI81); details: Compound concentration 1000.0 nM

C[C@H](c1ccc(F)cc1)N(Cc1cccc(C(=O)O)c1)C(=O)c1cnc2ccccc2c1 [PF-05105679]
inactive: residual activity [1] 98% | residual activity [2] 100% | residual activity [3] 100% | inhibition [4] 32% | residual activity [5] 100% | residual activity [6] 100% | residual activity [7] 85% | residual activity [8] 89% | residual activity [9] 78% | inhibition [10] -0.79% | residual activity [11] 86% | residual activity [12] 100% | residual activity [13] 100% | residual activity [14] 100% | residual activity [15] 100% | residual activity [16] 97% | residual activity [17] 94% | residual activity [18] 100% | residual activity [19] 100% | residual activity [20] 100% | inhibition [21] 10.1% | inhibition [22] -1.72% | residual activity [23] 100% | residual activity [24] 100% | residual activity [25] 84% | inhibition [26] 20% | residual activity [27] 85% | residual activity [28] 93% | inhibition [29] 28.4% | residual activity [30] 100% | residual activity [31] 100% | residual activity [32] 95% | residual activity [33] 87% | residual activity [34] 79% | residual activity [35] 100% | residual activity [36] 84% | residual activity [37] 100% | residual activity [38] 96% | residual activity [39] 100% | residual activity [40] 100% | residual activity [41] 100% | residual activity [42] 84% | inhibition [43] -1.69% | residual activity [44] 94%
